Holding throughout (assay): Kinase profiling
What all share (assay type): biochemical

Experiment [1] deals with T1, MARK1 (Homo sapiens, UniProt Q9P0L2).
T1 construct: purchased ProQinase (Freiburg, Germany)
Here is the method:
(§1) The analysis was performed by ProQinase (Freiburg, Germany).

For experiment [2], the target named is T2, PKCgamma (Homo sapiens, UniProt P05129).
T2 construct: purchased ProQinase (Freiburg, Germany)
Here is the method:
as §1

Experiment [3] concerns the target T3, CDK9/CycT1 (Homo sapiens, UniProt P50750).
T3 construct: purchased ProQinase (Freiburg, Germany)
The protocol:
as §1

Experiment [4] addresses T4, RPS6KA5 (Homo sapiens, UniProt O75582).
T4 construct: purchased ProQinase (Freiburg, Germany)
The protocol:
as §1

Experiment [5] has as its target T5, p38alpha (Homo sapiens, UniProt Q16539).
T5 construct: purchased ProQinase (Freiburg, Germany)
The protocol: as §1

Experiment [6] concerns the target T6, TSF1 (Homo sapiens, UniProt O75716).
T6 construct: purchased ProQinase (Freiburg, Germany)
Here is the method: as §1

Experiment [7] concerns the target T7, MST1 (Homo sapiens, UniProt Q13043).
T7 construct: purchased ProQinase (Freiburg, Germany)
T7 sequence (Q13043 1-487): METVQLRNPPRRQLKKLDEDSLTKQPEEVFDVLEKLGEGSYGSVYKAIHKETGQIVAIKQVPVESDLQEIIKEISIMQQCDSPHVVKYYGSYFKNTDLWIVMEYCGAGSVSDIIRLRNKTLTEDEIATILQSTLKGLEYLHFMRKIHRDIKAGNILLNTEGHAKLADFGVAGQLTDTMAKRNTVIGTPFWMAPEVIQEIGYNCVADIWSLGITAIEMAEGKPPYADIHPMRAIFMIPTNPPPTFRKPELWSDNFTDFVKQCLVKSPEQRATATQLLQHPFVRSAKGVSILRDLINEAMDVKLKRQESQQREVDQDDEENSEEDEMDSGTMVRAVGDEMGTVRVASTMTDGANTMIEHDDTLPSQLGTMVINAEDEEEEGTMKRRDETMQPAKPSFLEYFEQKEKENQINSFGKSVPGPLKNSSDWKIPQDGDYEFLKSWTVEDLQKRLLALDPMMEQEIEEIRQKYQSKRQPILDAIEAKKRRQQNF
Here is the method:
as §1

Experiment [8] concerns the target T8, ROS (Homo sapiens, UniProt P08922).
T8 construct: purchased ProQinase (Freiburg, Germany)
The protocol: as §1

Experiment [9] has as its target T9, DDR2 (Homo sapiens, UniProt Q16832).
T9 construct: purchased ProQinase (Freiburg, Germany)
T9 sequence (Q16832 22-855): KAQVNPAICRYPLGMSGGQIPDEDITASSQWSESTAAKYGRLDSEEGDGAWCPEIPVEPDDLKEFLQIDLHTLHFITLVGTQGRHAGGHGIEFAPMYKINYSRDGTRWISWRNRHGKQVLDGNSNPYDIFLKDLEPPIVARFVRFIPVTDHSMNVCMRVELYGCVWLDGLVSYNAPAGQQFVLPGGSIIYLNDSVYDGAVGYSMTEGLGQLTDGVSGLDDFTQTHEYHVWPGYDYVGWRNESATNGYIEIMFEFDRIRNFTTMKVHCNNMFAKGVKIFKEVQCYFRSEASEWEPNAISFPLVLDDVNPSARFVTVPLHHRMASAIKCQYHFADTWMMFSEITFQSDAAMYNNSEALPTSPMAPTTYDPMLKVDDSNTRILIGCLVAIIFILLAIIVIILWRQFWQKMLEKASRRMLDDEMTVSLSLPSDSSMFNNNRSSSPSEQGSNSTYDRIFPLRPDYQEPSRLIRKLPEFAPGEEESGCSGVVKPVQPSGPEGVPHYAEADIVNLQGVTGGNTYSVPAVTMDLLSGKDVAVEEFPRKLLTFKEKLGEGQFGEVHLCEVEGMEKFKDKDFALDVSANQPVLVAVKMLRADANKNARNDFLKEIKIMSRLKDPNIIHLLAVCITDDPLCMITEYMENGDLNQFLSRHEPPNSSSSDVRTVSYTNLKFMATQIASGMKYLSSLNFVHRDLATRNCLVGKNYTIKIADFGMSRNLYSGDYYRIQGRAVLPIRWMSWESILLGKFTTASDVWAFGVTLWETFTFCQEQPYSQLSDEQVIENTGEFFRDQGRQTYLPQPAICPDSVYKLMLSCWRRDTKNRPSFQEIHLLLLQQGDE
The protocol: as §1

Experiment [10] concerns the target T10, MEK5 (Homo sapiens, UniProt Q13163).
T10 construct: purchased ProQinase (Freiburg, Germany)
T10 sequence (Q13163 1-448): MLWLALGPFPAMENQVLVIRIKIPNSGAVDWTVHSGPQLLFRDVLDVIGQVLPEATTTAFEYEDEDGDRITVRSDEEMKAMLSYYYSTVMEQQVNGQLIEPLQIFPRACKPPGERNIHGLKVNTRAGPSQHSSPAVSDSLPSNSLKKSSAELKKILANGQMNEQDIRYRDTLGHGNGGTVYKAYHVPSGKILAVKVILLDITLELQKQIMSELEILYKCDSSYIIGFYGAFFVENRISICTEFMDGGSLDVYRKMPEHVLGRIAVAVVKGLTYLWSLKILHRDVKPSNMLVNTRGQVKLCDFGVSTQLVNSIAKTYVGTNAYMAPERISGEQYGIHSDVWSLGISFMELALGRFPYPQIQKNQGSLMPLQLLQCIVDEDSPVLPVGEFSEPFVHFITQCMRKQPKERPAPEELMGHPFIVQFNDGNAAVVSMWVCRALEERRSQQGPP
Here is the method:
as §1

Structures are written as SMILES. Some results are limits rather than exact numbers.

T6 sequence (O75716 whole entry): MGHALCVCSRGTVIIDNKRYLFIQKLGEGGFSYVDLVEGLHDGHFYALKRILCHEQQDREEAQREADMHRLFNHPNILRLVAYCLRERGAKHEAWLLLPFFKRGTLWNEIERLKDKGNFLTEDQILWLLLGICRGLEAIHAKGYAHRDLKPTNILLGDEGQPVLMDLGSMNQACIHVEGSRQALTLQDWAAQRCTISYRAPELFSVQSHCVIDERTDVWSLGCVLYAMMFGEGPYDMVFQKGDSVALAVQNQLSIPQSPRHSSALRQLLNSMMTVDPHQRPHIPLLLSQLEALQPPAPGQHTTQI
T8 sequence (P08922 28-2347): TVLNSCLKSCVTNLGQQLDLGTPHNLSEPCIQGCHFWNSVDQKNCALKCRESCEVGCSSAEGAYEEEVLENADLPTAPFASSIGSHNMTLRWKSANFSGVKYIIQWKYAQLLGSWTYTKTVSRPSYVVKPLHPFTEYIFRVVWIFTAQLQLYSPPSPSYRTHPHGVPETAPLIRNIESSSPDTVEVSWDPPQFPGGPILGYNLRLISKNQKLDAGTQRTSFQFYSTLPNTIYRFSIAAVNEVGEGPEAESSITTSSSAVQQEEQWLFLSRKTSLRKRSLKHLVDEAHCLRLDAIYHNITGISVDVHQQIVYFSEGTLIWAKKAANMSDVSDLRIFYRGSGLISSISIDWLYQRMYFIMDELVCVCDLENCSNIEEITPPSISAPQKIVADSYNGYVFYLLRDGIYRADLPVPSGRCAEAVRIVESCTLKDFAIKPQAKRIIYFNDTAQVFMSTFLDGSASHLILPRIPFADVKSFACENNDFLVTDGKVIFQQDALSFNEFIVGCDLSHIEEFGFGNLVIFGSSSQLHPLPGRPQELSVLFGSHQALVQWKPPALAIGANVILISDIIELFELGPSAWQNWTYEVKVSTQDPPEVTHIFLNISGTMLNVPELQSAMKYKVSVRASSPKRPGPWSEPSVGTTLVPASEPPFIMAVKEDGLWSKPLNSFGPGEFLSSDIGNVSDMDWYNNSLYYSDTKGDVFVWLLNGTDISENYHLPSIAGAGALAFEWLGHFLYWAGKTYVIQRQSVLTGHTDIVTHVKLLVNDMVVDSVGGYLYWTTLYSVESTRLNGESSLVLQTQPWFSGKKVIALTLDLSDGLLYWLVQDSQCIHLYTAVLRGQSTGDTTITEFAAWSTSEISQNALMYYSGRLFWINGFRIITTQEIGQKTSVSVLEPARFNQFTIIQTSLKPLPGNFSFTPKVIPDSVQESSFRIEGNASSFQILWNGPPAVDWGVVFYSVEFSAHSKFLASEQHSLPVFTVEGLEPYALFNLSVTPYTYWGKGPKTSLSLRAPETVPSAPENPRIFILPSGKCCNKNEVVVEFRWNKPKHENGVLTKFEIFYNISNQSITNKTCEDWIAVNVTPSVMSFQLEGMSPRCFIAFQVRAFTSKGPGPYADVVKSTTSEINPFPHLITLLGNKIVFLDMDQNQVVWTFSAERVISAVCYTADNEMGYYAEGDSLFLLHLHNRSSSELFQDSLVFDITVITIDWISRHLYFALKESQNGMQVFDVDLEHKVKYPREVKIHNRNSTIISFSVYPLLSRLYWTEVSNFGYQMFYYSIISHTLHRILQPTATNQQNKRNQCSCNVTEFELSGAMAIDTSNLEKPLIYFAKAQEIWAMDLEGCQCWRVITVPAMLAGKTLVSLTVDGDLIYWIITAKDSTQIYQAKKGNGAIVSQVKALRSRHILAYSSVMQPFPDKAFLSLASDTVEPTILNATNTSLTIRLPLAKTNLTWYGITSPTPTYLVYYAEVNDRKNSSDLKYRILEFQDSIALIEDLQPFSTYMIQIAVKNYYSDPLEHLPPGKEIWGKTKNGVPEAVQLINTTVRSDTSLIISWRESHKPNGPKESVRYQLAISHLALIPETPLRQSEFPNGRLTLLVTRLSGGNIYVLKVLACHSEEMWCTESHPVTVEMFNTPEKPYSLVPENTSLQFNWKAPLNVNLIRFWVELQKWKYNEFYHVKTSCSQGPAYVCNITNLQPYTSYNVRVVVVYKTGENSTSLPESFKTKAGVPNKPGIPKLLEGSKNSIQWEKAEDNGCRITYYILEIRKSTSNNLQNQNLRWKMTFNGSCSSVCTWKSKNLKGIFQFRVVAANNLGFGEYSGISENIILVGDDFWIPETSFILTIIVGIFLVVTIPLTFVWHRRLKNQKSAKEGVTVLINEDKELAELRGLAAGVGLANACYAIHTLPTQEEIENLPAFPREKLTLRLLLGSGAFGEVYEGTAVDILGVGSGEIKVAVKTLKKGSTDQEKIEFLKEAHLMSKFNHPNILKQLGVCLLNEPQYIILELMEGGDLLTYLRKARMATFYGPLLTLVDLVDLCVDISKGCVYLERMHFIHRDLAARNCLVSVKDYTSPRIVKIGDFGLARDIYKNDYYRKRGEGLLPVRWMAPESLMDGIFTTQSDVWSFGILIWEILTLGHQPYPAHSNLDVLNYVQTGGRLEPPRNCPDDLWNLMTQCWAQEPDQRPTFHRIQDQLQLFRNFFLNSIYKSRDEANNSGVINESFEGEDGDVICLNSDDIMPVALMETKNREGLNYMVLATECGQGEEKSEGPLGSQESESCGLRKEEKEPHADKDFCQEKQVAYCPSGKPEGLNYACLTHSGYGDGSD
T3 sequence (P50750 whole entry): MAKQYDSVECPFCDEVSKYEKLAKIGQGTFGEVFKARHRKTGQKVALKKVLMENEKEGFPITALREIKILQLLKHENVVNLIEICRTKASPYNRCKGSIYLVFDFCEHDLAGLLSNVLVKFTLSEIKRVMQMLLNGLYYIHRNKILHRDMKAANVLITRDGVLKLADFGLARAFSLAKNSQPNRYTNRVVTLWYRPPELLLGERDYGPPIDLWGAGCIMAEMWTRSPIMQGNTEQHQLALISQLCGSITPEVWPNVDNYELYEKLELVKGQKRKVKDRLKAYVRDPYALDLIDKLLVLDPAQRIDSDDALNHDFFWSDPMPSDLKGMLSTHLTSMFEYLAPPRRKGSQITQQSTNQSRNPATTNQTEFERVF
T3 sequence (O60563 whole entry partner): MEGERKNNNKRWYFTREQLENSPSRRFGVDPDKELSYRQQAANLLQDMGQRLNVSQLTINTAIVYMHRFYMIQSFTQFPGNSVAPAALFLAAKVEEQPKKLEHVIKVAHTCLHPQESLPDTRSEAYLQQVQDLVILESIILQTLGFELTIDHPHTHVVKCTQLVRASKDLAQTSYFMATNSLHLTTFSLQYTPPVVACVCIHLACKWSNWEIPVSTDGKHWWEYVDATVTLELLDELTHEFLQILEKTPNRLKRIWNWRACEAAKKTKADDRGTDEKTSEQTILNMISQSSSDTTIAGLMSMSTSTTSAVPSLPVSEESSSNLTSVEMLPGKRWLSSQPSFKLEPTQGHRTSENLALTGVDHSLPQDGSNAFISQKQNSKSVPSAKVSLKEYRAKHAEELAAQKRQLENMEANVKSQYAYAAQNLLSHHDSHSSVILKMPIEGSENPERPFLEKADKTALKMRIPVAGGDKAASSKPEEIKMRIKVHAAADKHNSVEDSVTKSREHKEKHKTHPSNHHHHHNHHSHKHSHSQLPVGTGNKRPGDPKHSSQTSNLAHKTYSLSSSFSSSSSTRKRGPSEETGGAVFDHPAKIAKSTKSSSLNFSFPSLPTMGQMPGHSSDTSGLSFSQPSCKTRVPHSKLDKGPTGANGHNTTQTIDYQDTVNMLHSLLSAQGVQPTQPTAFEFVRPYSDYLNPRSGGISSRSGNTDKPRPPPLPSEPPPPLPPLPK
T5 sequence (Q16539 whole entry): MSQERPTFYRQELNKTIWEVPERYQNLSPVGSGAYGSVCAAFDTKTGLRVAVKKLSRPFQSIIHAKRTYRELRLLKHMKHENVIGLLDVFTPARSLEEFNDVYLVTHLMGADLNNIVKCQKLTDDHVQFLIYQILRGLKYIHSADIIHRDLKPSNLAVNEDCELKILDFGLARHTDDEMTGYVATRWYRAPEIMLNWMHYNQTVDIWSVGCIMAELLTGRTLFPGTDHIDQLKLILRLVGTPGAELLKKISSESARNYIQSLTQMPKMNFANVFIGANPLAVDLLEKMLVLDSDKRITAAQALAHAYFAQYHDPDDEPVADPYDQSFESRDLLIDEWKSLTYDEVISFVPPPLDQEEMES

Take `O=C(Cc1ccccc1)Nc1ccc(F)c(Nc2ccc3c(c2)CCCCC3=O)c1` [Compound 100]: the Residual activity in experiment [1] (1.0E-05 M) is reported as 90 % of control; in [1] (1.0E-06 M) it was 91 % of control; in experiment [2] (1.0E-05 M), 78 % of control; in [2] (1.0E-06 M), 77 % of control; in experiment [3] (1.0E-05 M), 89 % of control; in experiment [3] (1.0E-06 M), 95 % of control. For the same molecule, the Residual activity in experiment [4] (1.0E-05 M) is reported as 97 % of control; in [4] (1.0E-06 M) it was 104 % of control; in experiment [5] (1.0E-05 M), 73 % of control; in experiment [5] (1.0E-06 M) it was 78 % of control; in experiment [6] (1.0E-05 M), 88 % of control; in experiment [6] (1.0E-06 M), 107 % of control. Moreover, the Residual activity in experiment [7] (1.0E-05 M) is given as 92 % of control; in experiment [7] (1.0E-06 M), 102 % of control; in [8] (1.0E-05 M) it was 91 % of control; in experiment [8] (1.0E-06 M), 99 % of control; in experiment [9] (1.0E-05 M) it was 71 % of control; in [9] (1.0E-06 M), 94 % of control. Further, the Residual activity in experiment [10] (1.0E-05 M) is given as 114 % of control; in [10] (1.0E-06 M) it was 118 % of control.

By inhibition is commonly meant the relative decrease from the control value, in per cent. With `O=C(Nc1ccc(F)c(Nc2ccc3c(c2)CCCCC3=O)c1)c1cccc(F)c1` [Compound 109], the Residual activity was 99 % of control in experiment [1] (1.0E-05 M); 87 % of control in experiment [1] (1.0E-06 M); 63 % of control in experiment [2] (1.0E-05 M); 81 % of control in experiment [2] (1.0E-06 M); 93 % of control in experiment [3] (1.0E-05 M); 92 % of control in experiment [3] (1.0E-06 M). Further, the Residual activity in experiment [4] (1.0E-05 M) is on record as 93 % of control; in experiment [4] (1.0E-06 M) it was 96 % of control; in experiment [5] (1.0E-05 M), 4 % of control; in experiment [5] (1.0E-06 M), 17 % of control; in experiment [6] (1.0E-05 M), 94 % of control; in experiment [6] (1.0E-06 M), 97 % of control. Moreover, the Residual activity is given as 98 % of control in experiment [7] (1.0E-05 M); 103 % of control in [7] (1.0E-06 M); 85 % of control in experiment [8] (1.0E-05 M); 97 % of control in experiment [8] (1.0E-06 M); 64 % of control in [9] (1.0E-05 M); 93 % of control in experiment [9] (1.0E-06 M). Besides, the Residual activity in experiment [10] (1.0E-05 M) is reported as 94 % of control; in experiment [10] (1.0E-06 M) it was 104 % of control. Also, the inhibition at 1 µM in [5] (1 µM, read-out: inhibition of p38α) was at least 50%. Besides, the inhibition at 10 µM in experiment [5] (10 µM, read-out: inhibition of p38α) was at least 50%.
